The test system of one assay is RG2 cells. The assay is described as follows: In situ (intra-cranial) RG2 GBM tumor in rats, MRI tumor volume. Type of assay: in vivo, F344 rats. The note with it: BP 300 mg/kg/day s.c. day 4-8, i.c. RG2. Here is the method: (§1) The RG2 cells (rat GBM) and DBTRG-05MG cells (human GBM) were used in animal experiments to monitor the anti-tumor activities of AS-C and BP. Male F344 rat (230-260 g) and male Foxn1 nu/nu mice (10-12 weeks) were obtained from National Laboratory Animal Center (Taipei, Taiwan). All procedures were performed in compliance with the Standard Operation Procedures of the Laboratory Animal Center of Tzu Chi University (Hualien, Taiwan). Animals were kept under pathogen-free conditions and fed a standard laboratory diet. The DBTRG-05MG cells (human GBM) and RG2 cells (rat GBM) were prepared for nude mice xenografts and rat allogenics, respectively.
The cytotoxic effect of AS-C on in situ tumor was determined with RG2 cells. […] Tumor volumes were measured and calculated by 3-T unit MRI (General Electric, Wisconsin, USA) with echo-planar imaging capability (Signa LX 3.8, General Electric, Wisconsin, USA) in Buddhist Tzu Chi General Hospital (Hualien, Taiwan). […]
The rats in two groups (6/group) were implanted i.c. (striatum) with 5×10^4 RG2 cells, and randomly treated with BP (300 mg/kg/day) or vehicle s.c. in the hind flank region after tumor cell implantation at day 4, 5, 6, 7 and 8 for five dosages. Tumor volume was measured and calculated by MRI. […] Finally, the whole tumor sizes (mm^3) were measured and calculated for each group.

The test system of another assay is DBTRG-05MG cells. In words: s.c. xenograft human GBM tumors in nude mice, BP. Type of assay: in vivo, Foxn1 nude mice. The protocol:
as §1
Animals (Foxn1 nude mice) in six groups (6/group) were implanted subcutaneously (s.c.) with 1×10^6 DBTRG-05MG cells, and randomly treated with BP s.c. (70, 150, 300, 500, 800 mg/kg/day) or vehicle s.c. at a site remote (>2 cm) from the incubated tumor after tumor cell implantation, at day 4, 5, 6, 7 and 8 for all five dosages. Tumor size was measured every 2 days and tumor volume was calculated. Animals were sacrificed when tumor exceeded 1000 mm^3. Tumor growth was monitored for 3 months for those not sacrificed. Survival rate was followed for up to 200 days.
In general terms: In xenograft studies the graft and the host belong to different species.

For a further assay, the system named is ETS-1. In words: RT-PCR of ETS-1 in HUVEC. The format is cell-based, human.
Another assay concerns J5. In words: Cytotoxicity (IC50) on J5. The format is cell-based. The note with it: Homo sapiens. Here is the method:
(§2) Human tumor cell lines (MCF-7, CL1-5, HT-29, Caco-2), human umbilical vascular endothelial cells (HUVEC), and human dermal fibroblasts (HDF) were tested for sensitivity on Angelicae sinensis extracts, ligustilide, n-butylidenephthalide and its derivatives in vitro. The DBTRG-05MG, BCM, HL-60 and J5 cells were grown in RPMI-1640 medium containing 10% fetal calf serum and 100 ng/ml penicillin and […] streptomycin at 37° C. in a humidified atmosphere with 5% CO2. The G5T/VGH, RG2, Ni 8, SVEC and Balb/3T3 cells were cultured in DMEM with 10% fetal calf serum and 100 ng/ml penicillin and […] streptomycin at 37° C. in 5% CO2. Mycoplasma infection of the culture cells was excluded by PCR screening methods before each experiment.
The effects on cell viability after the treatments with different concentrations of the Angelicae sinensis extracts or the active components purified therefrom were evaluated by modified MTT assay in triplicate. Briefly, the cells (5×10^3) were incubated into 96-well plates containing 100 μl of a growth medium. The cells were permitted to adhere for 24 hours, then treated with 100 μl of the herbal extracts or the active components dissolved in the medium. The control contained DMSO of <0.02% (v/v). […] Absorbance at 550 nm of the solutions was measured with MRX Microtiter Plate Luminometer (DYNEX, USA). The absorbance of untreated cells was considered as 100%. […]

The next assay concerns brain tumor cell lines. In words: Cytotoxicity (IC50) on brain tumor cell lines, pooled statement. The format is cell-based. Particulars: read-out: IC50 to brain tumor cell lines. The protocol:
(§3) The effects on cell viability after the treatments with different concentrations of the Angelicae sinensis extracts or the active components purified therefrom were evaluated by modified MTT assay in triplicate. Briefly, the cells (5×10^3) were incubated into 96-well plates containing 100 μl of a growth medium. The cells were permitted to adhere for 24 hours, then treated with 100 μl of the herbal extracts or the active components dissolved in the medium. The control contained DMSO of <0.02% (v/v). After 24, 48 and 72 h incubation, the drug-containing medium was replaced by 50 μl of fresh medium, and cells in each well were incubated in 50 μl of 400 μg/ml MTT for 6-8 h. The medium and MTT were removed later and 100 μl of DMSO was added to each well and to the control, to dissolve the soluble components. Absorbance at 550 nm of the solutions was measured with MRX Microtiter Plate Luminometer (DYNEX, USA). The absorbance of untreated cells was considered as 100%. To evaluate the effects of the extracts or the active components on cell growth rate of GBM cells, 5×10^3 exponentially growing cells were treated with different concentrations for 24, 48, or 72 h. The cytotoxicity of each test substance was determined as an IC50 value, which represents the drug concentration required to cause 50% inhibition. All experiments in this study were performed in triplicate.

A further assay has as its system DBTRG-05MG. In words: Cytotoxicity (IC50) on DBTRG-05MG. Type of assay: cell-based. The note with it: Homo sapiens. The protocol:
as §2
as §3, with “All experiments in this study were performed in triplicate.” left out

Another assay concerns RG2. In words: Cytotoxicity (IC50) on RG2. The format is cell-based, rat. The note with it: Rattus norvegicus, RG2. Here is the method:
as §2, §3

Each structure is given as a SMILES string. In brackets after ≈: the same amount, converted by molar mass. Read-outs that look alike come from different tables or passages of the source.

On to `CCCC=C1OC(=O)c2ccccc21` [BP, n-Butylidenephthalide], for which the “mean tumor volume at day 14 (MRI)” value in the assay with RG2 cells came to 46.6±1.8 mm^3. Further, the “mean tumor volume at day 16 (MRI)” value in the assay with RG2 cells is reported as 91.68±8.3 mm^3. Also, the “tumor growth compared with untreated group” value with DBTRG-05MG cells (BP s.c. 70-800 mg/kg/day day 4-8, dose dependent, p<0.005 for 300 mg/kg) is recorded as “significant suppressions of tumor growth”. For the same compound, the “survival period of nude mice” value in the assay on DBTRG-05MG cells (BP s.c. 70-800 mg/kg/day, followed for up to 200 days) was “up to 200 days”. The figures for the “Inhibition RT-PCR ETS-1” value in the assay on ETS-1 and in the assay with ETS-1 (value in parentheses) were 53.13 µg/mL and “(282.6 μM)”, respectively. Besides, the IC50 with J5 (Table 2) was 15 to 20 µg/mL; in the assay on J5 (Table 2, value in parentheses), 79.8 to 106 µM; in the assay on brain tumor cell lines, 1.4 to 10 µg/mL (≈ 7.44 to 53.1 µM); in the assay with DBTRG-05MG (Table 2, read-out: Cytotoxicity (IC50) DBTRG-05MG) it was 7 to 10 µg/mL; in the assay on DBTRG-05MG (Table 2, value in parentheses, read-out: Cytotoxicity (IC50) DBTRG-05MG) it was 37.2 to 53.2 µM; in the assay with RG2 (Table 1, value in parentheses), 7.45 µM. Besides, the IC50 worked out at 1.4 µg/mL in the assay on RG2 (Table 2); 7.45 µM in the assay with RG2 (Table 2, value in parentheses); 1.4 µg/mL in the assay on RG2 (cancer cells, Table 1).

The IC50 is the concentration that gives 50% inhibition.

For the origin of these results see US7455861B2, “Angelicae sinensis extracts useful for treatment of cancers” (priority 2004, dated 2008).
